Reference: patent US20090181467A1, “Method of assessing and of activating the alternative cellular energy (ACE) pathway in the therapy of diseases” (MI Hope Inc. dba Progressive University, priority 2008, published 2009)

Assays:
[1] = tested on: alternative cellular energy (ACE) pathway; assay: neutral red dye / UV-A light activation of the ACE pathway in patients; type: in vivo, human
Excerpt: A series of patients have been seen who have a history of recurrent herpes simplex virus (HSV) skin lesions, or a past history of herpes zoster virus (HZV) infections, but with no actual skin lesions present at the time of examination. Another series of patients were recruited from among the patients attending a chiropractic clinic for various pain or impaired mobility related conditions. Under the direction of the inventor, both groups of patients were asked to volunteer for a study on assessing and, if necessary, activating the ACE pathway. Q-tips were used to sample various areas of their skin as well as the mucosal (buccal) surface of their mouths. Urine samples were also collected. The materials were checked for direct fluorescence using a 15W ultraviolet-A light emitting spiral fluorescent light (Halco, ProLume light). The swabs were then touched against other Q-tips that were soaked in an approximately 1 mg/ml solution of neutral red. Several drops of the neutral red solution were added to the urine. The Q-tips and urine were again examined under UV-A light for discernable fluorescence compared to Q-tips exposed only to neutral red. […] Clinic staff similarly tested and gave negative results.
Skin areas of the patients from which fluorescing material were obtained were then wiped with absorbent cloth. These cloth was placed over areas of skin from which the material was collected, stained with neutral red, and exposed to UV-A light from spiral fluorescent bulbs. Under UV illumination, fluorescence developed in areas of skin beneath and adjacent to the stained cloth. The fluorescence lasted for varying periods of time extending in one patient to 3 hours, but generally less than 1 hour. […] Similarly, in most patients there was no discernable fluorescing material when the patients were seen the next day. […] A person commented upon the relief they experienced from a chronically painful shoulder that had resulted from injuries received years earlier in a car accident. Another patient's personality transformed from expressions of anger and hostility to one of laughter and smiles.

[2] = tested on: active skin lesions caused by herpes simplex virus (HSV), herpes zoster virus (HZV) and human papillomavirus (HPV) infections; conditions: cited from earlier work

Compound: Cc1cc2nc3ccc(N(C)C)cc3nc2cc1N.Cl [neutral red]
- sense of wellness ([1]; all patients, at the end of period of UV illumination): much improved sense of wellness
- severity of the pain and restricted mobility symptoms ([1]; chiropractic patients, following day): marked reductions
- persistence of benefits after a therapy session ([1]; no additional intervention): 2-3 weeks
- vitality ([1]; patients with prior history of recurrent HSV infections, immediately after therapy session and next day): improved vitality
- healing of active skin lesions [2]: successfully used in expediting the healing
